Where a name gives a salt, the structure may show the parent alone.

One experiment deals with amyloid β production in transfected H4 (human neuroglioma) cells stably expressing APP constructs. The experiment is described as follows: In vitro cell-based assay of inhibitors of amyloid β production (ELISA). The settings on record: Homo sapiens, 16 h, transfected H4 cells expressing APP, approximately 16 hours incubation, amyloid β in medium by ELISA; read-out: ACTIVITY (IC50, inhibition of amyloid β production). In outline: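 H4 neuroglioma cells stably expressing APP constructs were dosed in fresh medium, screened initially at 10-100 μM, and incubated ~16 h. Medium Aβ was measured by ELISA with C-terminal-epitope capture and N-terminal detection antibodies, quantified from a standard curve, with dose-response testing of actives.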
(In general: In an ELISA, binding on a coated surface is turned into a signal by an enzyme label.)
In the case of `CNC(=O)OC[C@@H](C)N(c1cc(Cl)ccc1CO)S(=O)(=O)c1ccc(Cl)cc1` [Example 1280], the IC50 is not above 0.025 µM.
With `CCCCN(CCCC)CCCNC(=O)[C@@H](C)N(c1cc(Cl)ccc1F)S(=O)(=O)c1ccc(Cl)cc1` [Example 1333], the IC50 is more than 0.5 µM.
Take `C[C@H](C(=O)NCC1CC1)C(c1cc(Cl)ccc1F)S(=O)(=O)c1ccc(Cl)cc1` (stereo partly drawn) [Example 1303]: the IC50 lay within 0.1 to 0.5 µM.
With `C[C@H](C(=O)Nc1cc(Cl)ccc1O)N(c1cc(Cl)ccc1F)S(=O)(=O)c1ccc(Cl)cc1` [Example 1336], the IC50 is more than 0.5 µM.
Regarding `C[C@H](C(=O)N(CCN)c1ccccc1)N(c1cc(Cl)ccc1F)S(=O)(=O)c1ccc(Cl)cc1` [Example 1329], the IC50 was more than 0.5 µM.

The same experiment, now with this note: Homo sapiens, 16 h, transfected H4 cells stably expressing APP constructs; approximately 16 hours incubation; amyloid β in medium by ELISA; read-out: ACTIVITY (IC50, inhibition of amyloid β production).
Take `CNS(=O)(=O)CCC[C@@H](C)N(c1cc(Cl)ccc1CO)S(=O)(=O)c1ccc(Cl)cc1` [Example 1233, 4-chloro-N-[5-chloro-2-(hydroxymethyl)phenyl]-N-[4-[(methylamino)sulfonyl]-1(R)-methylbutyl]benzenesulfonamide]: the IC50 is not above 0.025 µM.
For the compound `C[C@H](CCCS(=O)(=O)N1CCOCC1)N(c1cc(Cl)ccc1Cl)S(=O)(=O)c1ccc(Cl)cc1` [Example 1209, 4-chloro-N-[2,5-dichlorophenyl]-N-[4-[(4-morpholinyl)sulfonyl]-1(R)-methylbutyl]benzenesulfonamide], the IC50 is not above 0.025 µM.

The same experiment, now with this note: Homo sapiens, 16 h, transfected H4 cells stably expressing APP; approx. 16 h incubation; amyloid β in medium by ELISA; read-out: ACTIVITY (IC50, inhibition of amyloid β production).
Turning to `O=S(=O)(c1ccc(Cl)cc1)N(Cc1ccccc1OCCC1CCCCN1Cc1ccccc1I)c1cc(F)ccc1F` (stereo not drawn) [Example 672, 4-chloro-N-(2,5-difluorophenyl)-N-(2-{2-[1-(2-iodobenzyl)-2-piperidinyl]ethoxy}benzyl)benzenesulfonamide], the IC50 is 0.1 to 0.5 µM.
For `CCCC(C)N(Cc1ccccc1OCCCN1CCCCC1)S(=O)(=O)c1ccc(Cl)cc1` (stereo not drawn) [Example 781, 4-chloro-N-(1-methylbutyl)-N-{2-[3-(1-piperidinyl)propoxy]benzyl}benzenesulfonamide hydrochloride], the IC50 was in the range of 0.1 to 0.5 µM.
Take `COc1ccc([S+]([O-])CCCOc2ccccc2CN(c2cc(F)ccc2F)S(=O)(=O)c2ccc(Cl)cc2)cc1` (stereo not drawn) [Example 803, 4-chloro-N-(2,5-difluorophenyl)-N-(2-{3-[(4-methoxyphenyl)sulfinyl]propoxy}benzyl)benzenesulfonamide]: the IC50 lay in the range of 0.1 to 0.5 µM.

Still in this experiment, the particulars now being: Homo sapiens, 16 h, transfected H4 cells stably expressing APP; approximately 16 hours incubation; amyloid β in medium by ELISA; read-out: ACTIVITY (IC50, inhibition of amyloid β production).
Regarding `O=S(=O)(c1ccc(Cl)cc1)N(Cc1cc(Cl)ccc1C#CCCN1CCCCC1)c1ccccc1` [Example 990, 4-chloro-N-{5-chloro-2-[4-(1-piperidinyl)-1-butynyl]benzyl}-N-phenylbenzenesulfonamide hydrochloride], the IC50 is more than 0.5 µM.
Take `CSc1cccc(N(Cc2ccccc2OCCCN2CCCCC2)S(=O)(=O)c2ccc(Cl)cc2)c1` [Example 952, 4-chloro-N-[3-(methylsulfanyl)phenyl]N-{2-[3-(1-piperidinyl)propoxy]benzyl}benzenesulfonamide hydrochloride]: the IC50 was more than 0.5 µM.
Consider `O=S(=O)(c1ccc(Cl)cc1)N(Cc1ccccc1OCCCBr)c1ccccc1` [Example 1039, N-[2-(3-bromopropoxy)benzyl]-4-chloro-N-phenylbenzenesulfonamide], for which the IC50 was more than 0.5 µM.
On the same count and under the same terms, for `O=S(=O)(c1ccc(Cl)cc1)N(Cc1ccccc1OCCCN1CCCCC1)C1CCc2ccccc21` (stereo not drawn) [Example 1012, 4-chloro-N-(2,3-dihydro-1H-inden-1-yl)-N-{2-[3-(1-piperidinyl)propoxy]benzyl}benzenesulfonamide hydrochloride] the value was more than 0.5 µM; for `Cc1ccc(C(=O)N2CCCCC2CCOc2ccccc2CN(c2cc(F)ccc2F)S(=O)(=O)c2ccc(Cl)cc2)cc1` (stereo not drawn) [Example 884, 4-chloro-N-(2,5-difluorophenyl)-N-(2-{2-[1-(4-methylbenzoyl)-2-piperidinyl]ethoxy}benzyl)benzenesulfonamide], more than 0.5 µM.
Consider `C[C@@H](Oc1ccc(Cl)cc1N(C)S(=O)(=O)c1ccc(Cl)cc1)c1ccc(F)cc1CCCC(=O)O` [Example 935, 4-[2-((1R)-1-{4-chloro-2-[[(4-chlorophenyl)sulfonyl](methyl)amino]phenoxy}ethyl)-5-fluorophenyl]butanoic acid], for which the IC50 is more than 0.5 µM.
Turning to `C[C@H](c1ccc(F)cc1CCCC1=NCCCN1)N(c1cc(F)ccc1F)S(=O)(=O)c1ccc(Cl)cc1` [Example 1008, 4-chloro-N-(2,5-difluorophenyl)-N-((1R)-1-{4-fluoro-2-[3-(1,4,5,6-tetrahydro-2-pyrimidinyl)propyl]phenyl}ethyl)benzenesulfonamide hydrochloride], the IC50 is more than 0.5 µM.
On to `O=C1c2ccccc2C(=O)N1CCCOc1ccccc1CN(c1cc(F)ccc1F)S(=O)(=O)c1ccc(Cl)cc1` [Example 916, 4-chloro-N-(2,5-difluorophenyl)-N-{2-[3-(1,3-dioxo-1,3-dihydro-2H-isoindol-2-yl)propoxy]benzyl}benzenesulfonamide], for which the IC50 is more than 0.5 µM.

Staying with this experiment, now noted: Table B; transfected H4 cells stably expressing APP; approximately 16 hours incubation; amyloid β in medium by ELISA; read-out: ACTIVITY (inhibitory concentration IC50, inhibition of amyloid β production).
For `C[C@H](CC[S+]([O-])CC(=O)O)N(c1cc(Cl)ccc1Cl)S(=O)(=O)c1ccc(Cl)cc1` (stereo partly drawn) [Example 182], the IC50 lay in the range of 0.025 to 0.05 µM.

The same experiment, now with this note: read-out: ACTIVITY (inhibitory concentration IC50, inhibition of amyloid β production).
`Cc1ccc(OCCCN2CCCCC2)c(CN(c2cc(F)ccc2F)S(=O)(=O)c2ccc(Cl)cc2)c1` [Example 232, 4-Chloro-N-(2,5-difluorophenyl)-N-{5-methyl-2-[3-(1-piperidinyl)propoxy]benzyl}benzenesulfonamide hydrochloride]: the IC50 was 0.025 to 0.05 µM.

The same experiment, now with this note: transfected H4 cells stably expressing APP constructs; approximately 16 hours incubation; amyloid β in medium by ELISA; read-out: ACTIVITY (IC50, inhibition of amyloid β production).
Turning to `C[C@H](COC(=O)NCCc1c[nH]cn1)N(c1cc(Cl)ccc1F)S(=O)(=O)c1ccc(Cl)cc1` [Example 1245, 4-Chloro-N-(2-fluoro-5-chlorophenyl)-N-[2-[[N′-[2-(1H-imidazol-4-yl)ethylamino]carbonyl]oxy]-(R)-1-methylethyl]benzenesulfonamide], the IC50 was not above 0.025 µM.
Consider “4-chloro-N-(2,5-dichlorophenyl)-N-[5-(1,1-dioxido-4-thiomorpholinyl)-1(R)-methylpropyl]benzenesulfonamide [Example 1104]”, for which the IC50 is not above 0.025 µM.
The same measure, in the same setting: under `C[C@H](COC(=O)NCCCn1ccnc1)N(c1cc(F)ccc1F)S(=O)(=O)c1ccc(Cl)cc1` [Example 1239, 4-Chloro-N-(2,5-difluorophenyl)-N-[2-[[N′-[3-(1H-imidazol-1-yl)propylamino]carbonyl]oxy]-(R)-1-methylethyl]benzenesulfonamide] stands not above 0.025 µM.

Staying with this experiment, now noted: transfected H4 cells stably expressing APP; approx. 16 h incubation; amyloid β in medium by ELISA; read-out: ACTIVITY (IC50, inhibition of amyloid β production).
Regarding `COC(=O)[C@@H](NC(=O)CCCC[C@@H](C)N(c1cc(Cl)ccc1F)S(=O)(=O)c1ccc(Cl)cc1)C(C)C` [Example 542, (R)-4-Chloro-N-(5-chloro-2-fluorophenyl)-N-[6-[N-(S)-[1-(methoxycarbonyl)-2-methylpropyl]amino]-1-methyl-6-oxohexyl]benzenesulfonamide], the IC50 was in the range of 0.1 to 0.5 µM.
As for “2-((1R)-1-{[(4-chlorophenyl)sulfonyl]-2,5-difluoroanilino}ethyl)benzyl butyl(methyl)carbamate [Example 720]”, the IC50 lay within 0.1 to 0.5 µM.
As to “N-{3-[2-(1-{[(4-chlorophenyl)sulfonyl]-2,5-difluoroanilino}ethyl)phenoxy]butyl}-3-cyclopentyl-N-methylpropanamide [Example 712]”, the IC50 fell in the range of 0.1 to 0.5 µM.
On to “2-((1R)-1-{[(4-chlorophenyl)sulfonyl]-2,5-difluoroanilino}ethyl)-5-fluorobenzyl 4-(trifluoromethyl)benzylcarbamate [Example 658]”, for which the IC50 lay within 0.1 to 0.5 µM.

The same experiment, now with this note: transfected H4 cells stably expressing APP; approximately 16 hours incubation; amyloid β in medium by ELISA; Table B; read-out: ACTIVITY (IC50, inhibition of amyloid β production).
Turning to `CNC(=O)CCCOc1ccccc1C(C)N(c1cc(F)ccc1F)S(=O)(=O)c1ccc(Cl)cc1` (stereo not drawn) [Example 378, 4-[2-(1-{[(4-Chlorophenyl)sulfonyl]-2,5-difluoroanilino}ethyl)phenoxy]-N-methylbutanamide], the IC50 is 0.05 to 0.1 µM.

Staying with this experiment, now noted: transfected H4 cells stably expressing APP; approximately 16 hours incubation; amyloid β in medium by ELISA; read-out: ACTIVITY (IC50, inhibition of amyloid β production).
Regarding “N-{3-[2-({[(4-chlorophenyl)sulfonyl]-2,5-difluoroanilino}methyl)phenoxy]propyl}-N-methyl-1,3-benzodioxole-5-carboxamide [Example 903]”, the IC50 is more than 0.5 µM.
Consider “S-ethyl 4-[2-(1-{[(4-chlorophenyl)sulfonyl]-2,5-difluoroanilino}ethyl)phenoxy]ethyl(ethyl)thiocarbamate [Example 830]”, for which the IC50 lay within 0.1 to 0.5 µM.
“N-{3-[2-(1-{[(4-chlorophenyl)sulfonyl]-2,5-difluoroanilino}ethyl)phenoxy]propyl}-2,3,4,5,6-pentafluoro-N-methylbenzamide [Example 828]”: the IC50 was 0.1 to 0.5 µM.
With “N-{3-[2-(1-{[(4-chlorophenyl)sulfonyl]-2,5-difluoroanilino}ethyl)phenoxy]propyl}-4-iodobenzamide [Example 824]”, the IC50 lay within 0.1 to 0.5 µM.
Turning to `C[N+]1(CCCOc2ccccc2CN(c2cc(Cl)ccc2Cl)S(=O)(=O)c2ccc(Cl)cc2)CCCCC1` [Example 1038, 1-{3-[2-((2,5-dichloro[(4-chlorophenyl)sulfonyl]anilino}methyl)phenoxy]propyl}-1-methylpiperidinium iodide], the IC50 was more than 0.5 µM.

Values taken from patent US6967196B1, “Sulfonamide compounds and uses thereof” (Bristol-Myers Squibb Company, priority 1999, dated 2005).
